# From ChEMBL document CHEMBL1201862, “PubChem BioAssay data set” (2004)
#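 Growth conditions: 96-well plates. Treatment: test compound, 48 hours, 5 concentrations. Analysis: linear interpolation between bracketing concentrations; unreached endpoints set to highest concentration. GI50 = concentration required for 50% inhibition of growth.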 Active and inactive are the calls of the source. Rule as the data show it: active = GI50 up to about 1.1 µM and inactive = higher.
# Key:
# Assay in all cases: growth of human tumour cells (NCI), 48 h
# BT-549 = tested on: BT-549
# CAKI-1 = tested on: CAKI-1
# DU-145 = tested on: DU-145
# HL-60 = tested on: HL-60
# K562 = tested on: K562
# MCF7 = tested on: MCF7
# MDA-MB-231 = tested on: MDA-MB-231
# MDA-N = tested on: MDA-N
# NCI-H226 = tested on: NCI-H226
# NCI-H460 = tested on: NCI-H460
# OVCAR-5 = tested on: OVCAR-5
# OVCAR-8 = tested on: OVCAR-8
# PC-3 = tested on: PC-3
# RPMI-8226 = tested on: RPMI-8226
# SK-MEL-28 = tested on: SK-MEL-28
# SK-MEL-2 = tested on: SK-MEL-2
# SN12C = tested on: SN12C
# UACC-62 = tested on: UACC-62
# LOX IMVI = tested on: LOX IMVI
SMILES,GI50 (BT-549),GI50 (CAKI-1),GI50 (DU-145),GI50 (HL-60),GI50 (K562),GI50 (MCF7),GI50 (MDA-MB-231),GI50 (MDA-N),GI50 (NCI-H226),GI50 (NCI-H460),GI50 (OVCAR-5),GI50 (OVCAR-8),GI50 (PC-3),GI50 (RPMI-8226),GI50 (SK-MEL-28),GI50 (SK-MEL-2),GI50 (SN12C),GI50 (UACC-62),GI50 (LOX IMVI)
[O-][S+](c1ccc(Cl)cc1)c1ccccc1C1=NCCN1 (stereo not given),> 100 µM (inactive),> 100 µM (inactive),> 100 µM (inactive),> 100 µM (inactive),> 100 µM (inactive),> 100 µM (inactive),> 100 µM (inactive),> 100 µM (inactive),> 100 µM (inactive),> 100 µM (inactive),> 100 µM (inactive),> 100 µM (inactive),> 100 µM (inactive),> 100 µM (inactive),> 100 µM (inactive),> 100 µM (inactive),> 100 µM (inactive),> 100 µM (inactive),
CC(C)C(C/C=C1/CC(CO)(COC(=O)C(C)(C)C)OC1=O)C(C)C (stereo not given),13.5 µM (inactive),3.3 µM (inactive),11.1 µM (inactive),0.105 µM (active),0.171 µM (active),18.4 µM (inactive),3.25 µM (inactive),4.3 µM (inactive),7.57 µM (inactive),7.76 µM (inactive),11.6 µM (inactive),19 µM (inactive),6.24 µM (inactive),,15.9 µM (inactive),15.1 µM (inactive),11.1 µM (inactive),12.9 µM (inactive),12.3 µM (inactive)
c1ccc(CCNc2ccccn2)nc1,> 100 µM (inactive),> 100 µM (inactive),> 100 µM (inactive),> 100 µM (inactive),,> 100 µM (inactive),> 100 µM (inactive),> 100 µM (inactive),> 100 µM (inactive),> 100 µM (inactive),> 100 µM (inactive),> 100 µM (inactive),> 100 µM (inactive),,> 100 µM (inactive),> 100 µM (inactive),> 100 µM (inactive),> 100 µM (inactive),> 100 µM (inactive)
COc1ccc(-c2nc(SCC(=O)N/N=C/c3ccc(O)c(OC)c3)[nH]c2-c2ccc(OC)cc2)cc1,22.1 µM (inactive),54.3 µM (inactive),39.8 µM (inactive),11.2 µM (inactive),20 µM (inactive),17.9 µM (inactive),24.7 µM (inactive),22.1 µM (inactive),,23.2 µM (inactive),27.8 µM (inactive),28.9 µM (inactive),27.1 µM (inactive),,28.4 µM (inactive),17.3 µM (inactive),19.1 µM (inactive),14.1 µM (inactive),22.8 µM (inactive)
CCN1CCN(c2ccc(Nc3ccnc4ccc5c(nnn5C)c34)cc2)CC1,17.3 µM (inactive),5.48 µM (inactive),5.25 µM (inactive),4.94 µM (inactive),3.61 µM (inactive),4.44 µM (inactive),8.55 µM (inactive),3.52 µM (inactive),,2.97 µM (inactive),9.16 µM (inactive),13.1 µM (inactive),5.28 µM (inactive),,11.1 µM (inactive),12.2 µM (inactive),3.53 µM (inactive),13.7 µM (inactive),3.14 µM (inactive)
O=C1CC(=O)NC(NN2C(=O)/C(=C/C(=O)c3ccco3)N=C2c2ccccc2)=N1,36.6 µM (inactive),> 100 µM (inactive),> 100 µM (inactive),,,95.1 µM (inactive),> 100 µM (inactive),77.3 µM (inactive),> 100 µM (inactive),30.3 µM (inactive),> 100 µM (inactive),44.5 µM (inactive),29.4 µM (inactive),,> 100 µM (inactive),92.7 µM (inactive),> 100 µM (inactive),37.7 µM (inactive),
O=C1c2ccccc2-c2c1c(-c1cccc(Br)c1)nc1ccc3ccccc3c21,> 100 µM (inactive),> 100 µM (inactive),> 100 µM (inactive),,> 100 µM (inactive),> 100 µM (inactive),> 100 µM (inactive),> 100 µM (inactive),> 100 µM (inactive),> 100 µM (inactive),> 100 µM (inactive),> 100 µM (inactive),> 100 µM (inactive),> 100 µM (inactive),> 100 µM (inactive),> 100 µM (inactive),> 100 µM (inactive),> 100 µM (inactive),> 100 µM (inactive)
CCCCOC(=O)Nc1ccc(S(=O)(=O)Nc2ccccc2Cl)cc1,22.5 µM (inactive),19.5 µM (inactive),30.3 µM (inactive),16.9 µM (inactive),17.5 µM (inactive),19.2 µM (inactive),21 µM (inactive),17.6 µM (inactive),,18.2 µM (inactive),25.8 µM (inactive),21.3 µM (inactive),24.9 µM (inactive),16.3 µM (inactive),19.6 µM (inactive),18.1 µM (inactive),21.2 µM (inactive),17.1 µM (inactive),18.1 µM (inactive)
COC(=O)Nc1nc2cc(S(=O)(=O)n3nnc4ccccc43)ccc2[nH]1,17.6 µM (inactive),54.2 µM (inactive),> 100 µM (inactive),66.2 µM (inactive),> 100 µM (inactive),28.1 µM (inactive),43.5 µM (inactive),> 100 µM (inactive),,> 100 µM (inactive),> 100 µM (inactive),> 100 µM (inactive),35 µM (inactive),0.708 µM (active),> 100 µM (inactive),> 100 µM (inactive),> 100 µM (inactive),41.5 µM (inactive),> 100 µM (inactive)
COc1ccc(C(=O)/C=C/c2ccncc2)cc1OC,6.22 µM (inactive),15.7 µM (inactive),17.7 µM (inactive),2.04 µM (inactive),2.31 µM (inactive),3.74 µM (inactive),12 µM (inactive),13.1 µM (inactive),15.5 µM (inactive),,14.3 µM (inactive),15.3 µM (inactive),16.7 µM (inactive),,17.3 µM (inactive),16.7 µM (inactive),15.8 µM (inactive),15.5 µM (inactive),1.47 µM (inactive)
CS(=O)(=O)c1nc(-c2cc3c(c(S(C)(=O)=O)n2)CCCC3)cc2c1CCCCC2,> 100 µM (inactive),59.3 µM (inactive),> 100 µM (inactive),> 100 µM (inactive),,,65.5 µM (inactive),> 100 µM (inactive),> 100 µM (inactive),,> 100 µM (inactive),32.5 µM (inactive),> 100 µM (inactive),> 100 µM (inactive),> 100 µM (inactive),> 100 µM (inactive),> 100 µM (inactive),> 100 µM (inactive),
O=C1N[C@@H]2c3c(csc3Br)C(=O)[C@@H]2O1,38.5 µM (inactive),20.8 µM (inactive),39.1 µM (inactive),24.3 µM (inactive),21.5 µM (inactive),32.6 µM (inactive),43.7 µM (inactive),25.1 µM (inactive),,43.4 µM (inactive),74 µM (inactive),22.2 µM (inactive),41.6 µM (inactive),26.9 µM (inactive),33.3 µM (inactive),46.5 µM (inactive),42.5 µM (inactive),34.1 µM (inactive),19 µM (inactive)
C/C=C1\C(=O)OC2CCN3CCC(COC(=O)C(C)(O)C(C)C1O)C23 (stereo not given),> 100 µM (inactive),> 100 µM (inactive),> 100 µM (inactive),> 100 µM (inactive),> 100 µM (inactive),> 100 µM (inactive),> 100 µM (inactive),> 100 µM (inactive),> 100 µM (inactive),> 100 µM (inactive),> 100 µM (inactive),> 100 µM (inactive),> 100 µM (inactive),,> 100 µM (inactive),> 100 µM (inactive),> 100 µM (inactive),> 100 µM (inactive),> 100 µM (inactive)
Cc1cc(C#N)c(Nc2c(C)cccc2[N+](=O)[O-])s1,24.3 µM (inactive),36.9 µM (inactive),36.2 µM (inactive),,> 100 µM (inactive),,24.7 µM (inactive),97.7 µM (inactive),> 100 µM (inactive),76.4 µM (inactive),12.4 µM (inactive),42.9 µM (inactive),17.3 µM (inactive),> 100 µM (inactive),76.9 µM (inactive),,> 100 µM (inactive),37.9 µM (inactive),
COC(=O)[C@H](CC(C)C)NC1=C(Cl)C(=O)c2c(O)ccc(O)c2C1=O,> 10 µM (inactive),> 10 µM (inactive),> 10 µM (inactive),8.02 µM (inactive),> 10 µM (inactive),,> 10 µM (inactive),8.73 µM (inactive),> 10 µM (inactive),> 10 µM (inactive),> 10 µM (inactive),> 10 µM (inactive),> 10 µM (inactive),4.81 µM (inactive),> 10 µM (inactive),> 10 µM (inactive),> 10 µM (inactive),> 10 µM (inactive),1.8 µM (inactive)
COc1cc2c(cc1OC(=O)c1cc3ccccc3[nH]1)N=C[C@@H]1CCCN1C2=O,0.638 µM (active),0.294 µM (active),0.425 µM (active),,0.306 µM (active),0.397 µM (active),0.418 µM (active),0.194 µM (active),0.809 µM (active),0.344 µM (active),0.255 µM (active),0.462 µM (active),0.585 µM (active),0.334 µM (active),0.531 µM (active),0.224 µM (active),0.221 µM (active),0.269 µM (active),0.332 µM (active)
